In PubChem BioAssay AID1339 (NMMLSC, 2008):

Molecular target: Ras-related C3 botulinum toxin substrate 1 (Homo sapiens) (UniProt P63000)
Assay: inhibitors of activated mutant Rac1 GTP binding, dose response, biochemical, multiplex, GST-Rac1 beads, Bodipy-FL-GTP, flow cytometry (AID 1339)

Cc1cc(NC(=O)CSc2nc(-c3ccccc3)c(C#N)c(=O)[nH]2)no1
EC50: 12.9 µM

Cc1cc(OCCSc2nc3ccccc3n2CC(=O)O)ccc1Cl
EC50: 25.1 µM

COc1cc(C(=O)OCC(=O)Nc2ccc3c(c2)OC(F)(F)O3)ccc1OCc1c(C)noc1C
EC50: 14.2 µM

Cc1ccccc1OCCn1c(C)c(C(=O)O)c2ccccc21
EC50: 0.625 µM

COc1ccc(Cl)cc1NCc1sc(C(=O)O)cc1C
EC50: 2.19 µM

Cc1ccc(SC(CC(=O)c2ccc(C(C)(C)C)cc2)C(=O)O)cc1 (stereo not given)
EC50: 12.3 µM

O=C(CSc1ncnc2scc(-c3ccccc3)c12)N1CCN(Cc2ccc3c(c2)OCO3)CC1
EC50: 61.1 µM

COc1ccccc1OCc1cccc(C(=O)O)c1
EC50: 9.53 µM

N#Cc1c(-c2ccccc2)nc(SCC(=O)Nc2ccccc2)[nH]c1=O
EC50: 29.5 µM

Cc1ccccc1C(=O)Nc1ccc2c(C#N)c3nc4ccccc4nc3n2c1
EC50: 0.889 µM

Cc1ccc(C(C)C)c(OCCSc2nc3ccccc3n2CC(=O)O)c1
EC50: 33.5 µM

Cc1cc(C(=O)Oc2ccccc2C(=O)O)c(C)o1
EC50: 0.665 µM

O=C(C#Cc1ccccc1)c1cccc([N+](=O)[O-])c1
EC50: 23.5 µM

Cc1ccc(C)c(OCCn2cc(C(=O)O)c3ccccc32)c1
EC50: 0.222 µM

CCN(CC)c1ccc2cc(-c3nc(-c4ccc(OC)cc4)cs3)c(=O)oc2c1
EC50: 0.553 µM

Cc1ccc(C(C)C)c(OCCn2cc(C(=O)O)c3ccccc32)c1
EC50: 0.635 µM

CCOC(=O)c1cc([N+](=O)[O-])c([N+](=O)[O-])cc1NC(C)=O
EC50: 31.5 µM

O=C(O)/C=C/c1cn(Cc2ccccc2)nc1-c1cccs1
EC50: 1.94 µM

CCCOc1ccc(OCCSc2nc3ccccc3n2CC(=O)O)cc1
EC50: 35.6 µM

CC(=O)Nc1cccc(C#CC(=O)c2ccc([N+](=O)[O-])cc2)c1
EC50: 14.2 µM

CCn1nc(C(=O)OCC(=O)c2cc(C)n(Cc3cccs3)c2C)c2ccccc2c1=O
EC50: 45.6 µM

COc1ccc(C(=O)Nc2cc(Cl)ccc2C(=O)O)cc1
EC50: 22.1 µM

CCOC(=O)c1c(NC(=O)/C=C/c2ccc3c(c2)OCO3)sc(C)c1CC
EC50: 30.1 µM

Cc1cc(C(=O)Cn2nc(C(=O)O)c3ccccc3c2=O)c(C)n1-c1ccc(OC(F)F)cc1
EC50: 3.55 µM

Cc1ccc(Nc2cc(C(=O)O)c3ccccc3n2)cc1C
EC50: 5.56 µM

CCOc1ccc(/C=C2\SC(N3CCc4ccccc4C3)=NC2=O)cc1
EC50: 10.6 µM

COc1ccc(C(=O)c2c(O)cc(-c3ccc(OC)cc3)oc2=O)cc1
EC50: 3.57 µM

CNC(=S)N=Nc1c(O)[nH]c2ccccc12
EC50: 91.6 µM

O=C(O)c1cc(Sc2ccc(Cl)cc2)nc2ccccc12
EC50: 69.4 µM

O=C(O)c1cn(CCOc2ccccc2)c2ccccc12
EC50: 0.857 µM

O=C(C#Cc1ccc(F)cc1)c1ccc([N+](=O)[O-])cc1
EC50: 3.92 µM

O=C(O)c1ccccc1NCc1c(Cl)cccc1Cl
EC50: 34.1 µM

COc1cccc(CNCc2sc(C(=O)O)cc2C)c1
EC50: 25.9 µM

Cc1cc(C)c(C)c(C(=O)c2ccccc2C(=O)O)c1C
EC50: 1.52 µM

CSc1ccc(/C=N/NC(=O)c2cc(O)cc(O)c2)cc1
EC50: 55.4 µM

COc1ccccc1OCCn1cc(C(=O)O)c2ccc(Cl)cc21
EC50: 1.75 µM

CC(=O)c1ccc(C#CC(=O)c2ccc([N+](=O)[O-])cc2)cc1
EC50: 1.22 µM

CC(C)(C)C#CC(=O)c1ccc([N+](=O)[O-])cc1
EC50: 65.1 µM

COC(=O)c1cccnc1SCCc1ccccc1
EC50: 36.6 µM

COc1cccc(NC(=O)COC(=O)/C=C/c2ccc(Cl)cc2Cl)c1
EC50: 13.3 µM

CCc1ccc(NS(=O)(=O)c2ccc3[nH]cc(C(=O)N4CCc5ccccc54)c(=O)c3c2)cc1
EC50: 20.6 µM

O=C(Nc1nnc(-c2ccc3c(c2)OCCO3)o1)c1ccc(Cc2ccccc2)cc1
EC50: 10.2 µM

O=C(c1nnsc1S(=O)(=O)c1ccc(Cl)cc1)N1CCOCC1
EC50: 13.7 µM

Cc1ccc(-n2c(-c3cnccn3)n[nH]c2=S)c(Br)c1
EC50: 28 µM

Cc1cc(C)cc(OCCSc2nc3ccccc3n2CC(=O)O)c1
EC50: 23.6 µM

CS(=O)(=O)c1ccc(C(=O)OCC(=O)NC(=O)C2CCCCC2)cc1[N+](=O)[O-]
EC50: 43.2 µM

COc1ccc(OC)c(-c2c3cc(O)c(=O)cc-3oc3cc(O)c(O)cc23)c1
EC50: 0.28 µM

O=[N+]([O-])c1cc2oc3c(c2c(C=NCc2ccccc2)c1O)CCCC3
EC50: 5.79 µM

O=C(O)c1ccccc1Sc1ncnc2sc3c(c12)CCC3
EC50: 1.08 µM

O=C(C#Cc1ccccc1)c1ccc([N+](=O)[O-])cc1
EC50: 6.48 µM

COc1ccccc1NCc1sc(C(=O)O)cc1C
EC50: 4.26 µM

Cc1nn(Cc2ccccc2)c(Cl)c1C(=O)O
EC50: 21.7 µM

O=C(O)c1cc(Sc2ccc(F)cc2)nc2ccccc12
EC50: 46.8 µM

OC(CNCCc1ccc(Cl)cc1)COc1ccc2ccccc2c1 (stereo not given)
EC50: 39 µM

CC(=O)c1c(C)[nH]c(C(=O)N2CCc3ccccc3C2)c1C
EC50: 2.53 µM
